Results from patent US20040023972A1, “Use of substituted imidazo[1,2-a]-pyridin-, -pyrimidin-and-pyrazin-3-yl-amine derivatives in the preparation of medicaments for inhibiting NOS” (Gruenenthal GmbH, priority 2000, published 2004).

Target: T1, NO synthase (Rattus norvegicus, UniProt P29476)
T1 construct: the supernatant was then removed by decantation and frozen in portions at −80° C; from tissue; host or cells: rat cerebellum, 20,000 g supernatant of homogenate
Assay: HTS-NOS assay (NOS assay): conversion of radioactive arginine, cation-exchanger filter plate
Type: biochemical
Conditions: for inhibition at 10 µM: read-out: HTS-NOS assay: % inhibition (10 μM)
Method in brief: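 Percent inhibition was derived by comparing remaining radioactive arginine with compound-free controls. Arginine retained on phosphate cation-exchanger filters was counted after citrulline washout, following a 5-60 min room-temperature (25 °C) reaction of labelled arginine, NADPH-containing medium and rat cerebellar homogenate supernatant.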

Row | SMILES | inhibition at 10 µM | NOS assay % inhibition (Table 5, concentration not given)
1 | CCCCN(C(C)=O)c1c(-c2cccc(Cl)c2Cl)nc2ncccn12 [Example 255, N-butyl-N-[2-(2,3-dichloro-phenyl)-imidazo[1,2-a]pyrimidin-3-yl]-acetamide] | 65% | –
2 | CCCCN(C(C)=O)c1c(-c2ccccc2OC)nc2ccccn12 [Example 237, N-butyl-N-[2-(2-methoxy-phenyl)-imidazo[1,2-a]pyridin-3-yl]-acetamide] | 55% | –
3 | CC(=O)N(c1c(-c2ccc(Cl)cc2Cl)nc2cc(C)cc(C)n12)C(C)(C)CC(C)(C)C [Example 177, N-[2-(2,4-dichloro-phenyl)-5,7-dimethyl-imidazo[1,2-a]pyridin-3-yl]-N-(1,1,3,3-tetramethyl-butyl)-acetamide] | 67% | –
4 | CC(=O)N(c1c(-c2ccc(Cl)cc2Cl)nc2ncccn12)C1CCCCC1 [Example 275, N-cyclohexyl-N-[2-(2,4-dichloro-phenyl)-imidazo[1,2-a]pyrimidin-3-yl]-acetamide] | 59% | –
5 | CCCCNc1c(-c2cccc(OC)c2OC)nc2cc(C)cc(C)n12 [Example 49, Butyl-[2-(2,3-dimethoxy-phenyl)-5,7-dimethyl-imidazo[1,2-a]pyridin-3-yl]-amine] | 67% | –
6 | COc1ccccc1-c1nc2c(C)cccn2c1N(C(C)=O)C(C)(C)CC(C)(C)C [Example 210, N-[2-(2-methoxy-phenyl)-8-methyl-imidazo[1,2-a]pyridin-3-yl]-N-(1,1,3,3-tetramethyl-butyl)-acetamide] | 53% | –
7 | Cc1ccn2c(Nc3c(C)cccc3C)c(-c3cc4ccccc4o3)nc2c1 [Example 90, (2-benzofuran-2-yl-7-methyl-imidazo[1,2-a]-pyridin-3-yl)-(2,6-dimethyl-phenyl)-amine] | 53% | –
8 | CSc1ccc(-c2nc3cnccn3c2N(C(C)=O)C(C)(C)C)s1 [Example 233, N-tert-butyl-N-[2-(5-methylsulfanyl-thiophen-2-yl)-imidazo[1,2-a]pyrazin-3-yl]-acetamide] | 53% | –
9 | CCCCN(C(C)=O)c1c(-c2cc(OC)c(OC)c(OC)c2)nc2cnccn12 [Example 283, N-butyl-N-[2-(3,4,5-trimethoxy-phenyl)-imidazo[1,2-a]pyrazin-3-yl]-acetamide] | 51% | –
10 | COc1ccccc1-c1nc2cc(C)ccn2c1Nc1c(C)cccc1C [Example 72, (2,6-Dimethyl-phenyl)-[2-(2-methoxy-phenyl)-7-methyl-imidazo[1,2-a]pyridin-3-yl]-amine] | 53% | –
11 | CCCCN(C(C)=O)c1c(-c2ccccn2)nc2c(C(=O)O)cccn12 [Example 231, 3-(acetyl-butyl-amino)-2-pyridin-2-yl-imidazo[1,2-a]pyridine-8-carboxylic acid] | 52% | –
12 | CCCCN(C(C)=O)c1c(-c2cccc(O)c2)nc2ncccn12 [Example 284, N-butyl-N-[2-(3-hydroxy-phenyl)-imidazo[1,2-a]pyrimidin-3-yl]-acetamide] | 51% | –
13 | Cc1cc(C)n2c(NC3CCCC3)c(-c3ccoc3)nc2c1.Cl [Example 307, Cyclopentyl-(2-furan-3-yl-5,7-dimethyl-imidazo(1,2-a]pyridin-3-yl)-amine hydrochloride] | – | 57%
14 | Cc1cc(C)n2c(NC3CCCCC3)c(-c3cccnc3)nc2c1 [Example 27, Cyclohexyl-(5,7-dimethyl-2-pyridin-3-yl-imidazo[1,2-a]pyridin-3-yl)-amine] | 62% | –
15 | COc1cccc(-c2nc3cc(C)ccn3c2Nc2c(C)cccc2C)c1OC [Example 39, [2-(2,3-Dimethoxy-phenyl)-7-methyl-imidazo[1,2-a]pyridin-3-yl]-(2,6-dimethyl-phenyl)-amine] | 58% | –
16 | Cc1cc(C)n2c(NC(C)(C)CC(C)(C)C)c(-c3ccc[nH]3)nc2c1 [Example 36, [5,7-Dimethyl-2-(1H-pyrrol-2-yl)-imidazo-[1,2-a]pyridin-3-yl]-(1,1,3,3-tetramethyl-butyl)-amine] | 69% | –
